# Data as given in PubChem BioAssay (NCI).
#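 1) Cells in 96-well plates. 2) Compound, 48 h, 5 concentrations. 3) Linear interpolation between surrounding doses. 4) Unreached endpoint = highest concentration. Here, GI50 denotes the concentration required for 50% inhibition of growth. TGI: total growth inhibition.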
# Columns and labels:
# Experiment in all cases: DTP human tumour cell line panel, 48 h
# A498 renal = tested on: A498 renal
# A549 NSCLC = tested on: A549 NSCLC
# ACHN renal = tested on: ACHN renal
# BT-549 breast = tested on: BT-549 breast
# CAKI-1 renal = tested on: CAKI-1 renal
# CCRF-CEM leukemia = tested on: CCRF-CEM leukemia
# COLO 205 colon = tested on: COLO 205 colon
# DU-145 prostate = tested on: DU-145 prostate
# EKVX NSCLC = tested on: EKVX NSCLC
# HCC-2998 colon = tested on: HCC-2998 colon
# HCT-116 colon = tested on: HCT-116 colon
# HOP-62 NSCLC = tested on: HOP-62 NSCLC
# HOP-92 NSCLC = tested on: HOP-92 NSCLC
# HS 578T breast = tested on: HS 578T breast
# HT29 colon = tested on: HT29 colon
# K-562 leukemia = tested on: K-562 leukemia
# KM12 colon = tested on: KM12 colon
# LOX IMVI melanoma = tested on: LOX IMVI melanoma
# M14 melanoma = tested on: M14 melanoma
# MALME-3M melanoma = tested on: MALME-3M melanoma
# MCF7 breast = tested on: MCF7 breast
# MDA-MB-231 breast = tested on: MDA-MB-231 breast
# MDA-MB-435 = tested on: MDA-MB-435
# MOLT-4 leukemia = tested on: MOLT-4 leukemia
# NCI-H226 lung = tested on: NCI-H226 lung
# NCI-H23 lung = tested on: NCI-H23 lung
# NCI-H460 lung = tested on: NCI-H460 lung
# NCI-H522 lung = tested on: NCI-H522 lung
# NCI/ADR-RES ovarian = tested on: NCI/ADR-RES ovarian
# OVCAR-3 ovarian = tested on: OVCAR-3 ovarian
# OVCAR-4 ovarian = tested on: OVCAR-4 ovarian
# OVCAR-5 ovarian = tested on: OVCAR-5 ovarian
# OVCAR-8 ovarian = tested on: OVCAR-8 ovarian
# PC-3 prostate = tested on: PC-3 prostate
# RPMI-8226 leukemia = tested on: RPMI-8226 leukemia
# RXF 393 renal = tested on: RXF 393 renal
# SF-268 CNS = tested on: SF-268 CNS
# SF-295 CNS = tested on: SF-295 CNS
# SF-539 CNS = tested on: SF-539 CNS
# SK-MEL-2 melanoma = tested on: SK-MEL-2 melanoma
# SK-MEL-28 melanoma = tested on: SK-MEL-28 melanoma
# SK-MEL-5 melanoma = tested on: SK-MEL-5 melanoma
# SK-OV-3 ovarian = tested on: SK-OV-3 ovarian
# SN12C renal = tested on: SN12C renal
# SNB-19 CNS = tested on: SNB-19 CNS
# SNB-75 CNS = tested on: SNB-75 CNS
# SW-620 colon = tested on: SW-620 colon
# T-47D breast = tested on: T-47D breast
# TK-10 renal = tested on: TK-10 renal
# U251 CNS = tested on: U251 CNS
# UACC-257 melanoma = tested on: UACC-257 melanoma
# UACC-62 melanoma = tested on: UACC-62 melanoma
# UO-31 renal = tested on: UO-31 renal
# 786-0 renal = tested on: 786-0 renal
# HCT-15 colon = tested on: HCT-15 colon
# HL-60(TB) leukemia = tested on: HL-60(TB) leukemia
# IGROV1 ovarian = tested on: IGROV1 ovarian
# SR leukemia = tested on: SR leukemia
smiles,measurement,setting,value
CC[C@H](Nc1nc(C)nc(N)c1C#N)c1nc2cccc(NCc3ccc(C(=O)NO)cc3)c2c(=O)n1-c1ccccc1,GI50,A498 renal,1.44 µM
same,TGI,A498 renal,2.93 µM
same,GI50,A549 NSCLC,1.92 µM
same,TGI,A549 NSCLC,4.2 µM
same,GI50,ACHN renal,1.63 µM
same,TGI,ACHN renal,3.69 µM
same,GI50,BT-549 breast,1.93 µM
same,TGI,BT-549 breast,4.56 µM
same,GI50,CAKI-1 renal,1.76 µM
same,TGI,CAKI-1 renal,3.68 µM
same,GI50,CCRF-CEM leukemia,0.551 µM
same,TGI,CCRF-CEM leukemia,9.21 µM
same,GI50,COLO 205 colon,1.74 µM
same,TGI,COLO 205 colon,3.8 µM
same,GI50,DU-145 prostate,2.01 µM
same,TGI,DU-145 prostate,4.89 µM
same,GI50,EKVX NSCLC,1.56 µM
same,TGI,EKVX NSCLC,3.21 µM
same,GI50,HCC-2998 colon,1.67 µM
same,TGI,HCC-2998 colon,3.28 µM
same,GI50,HCT-116 colon,1.01 µM
same,TGI,HCT-116 colon,2.5 µM
same,GI50,HOP-62 NSCLC,1.49 µM
same,TGI,HOP-62 NSCLC,3.09 µM
same,GI50,HOP-92 NSCLC,1.38 µM
same,TGI,HOP-92 NSCLC,3.07 µM
same,GI50,HS 578T breast,2.45 µM
same,TGI,HS 578T breast,8.36 µM
same,GI50,HT29 colon,1.76 µM
same,TGI,HT29 colon,4.45 µM
same,GI50,K-562 leukemia,2.2 µM
same,TGI,K-562 leukemia,> 100 µM
same,GI50,KM12 colon,1.81 µM
same,TGI,KM12 colon,3.45 µM
same,GI50,LOX IMVI melanoma,1.65 µM
same,TGI,LOX IMVI melanoma,3.04 µM
same,GI50,M14 melanoma,2.28 µM
same,TGI,M14 melanoma,5.85 µM
same,GI50,MALME-3M melanoma,1.48 µM
same,TGI,MALME-3M melanoma,4.05 µM
same,GI50,MCF7 breast,2.07 µM
same,TGI,MCF7 breast,5.89 µM
same,GI50,MDA-MB-231 breast,1.4 µM
same,TGI,MDA-MB-231 breast,3.36 µM
same,GI50,MDA-MB-435,1.93 µM
same,TGI,MDA-MB-435,3.74 µM
same,GI50,MOLT-4 leukemia,1.36 µM
same,TGI,MOLT-4 leukemia,5.82 µM
same,GI50,NCI-H226 lung,1.72 µM
same,TGI,NCI-H226 lung,4.44 µM
same,GI50,NCI-H23 lung,1.83 µM
same,TGI,NCI-H23 lung,4.05 µM
same,GI50,NCI-H460 lung,1.79 µM
same,TGI,NCI-H460 lung,3.78 µM
same,GI50,NCI-H522 lung,1.54 µM
same,TGI,NCI-H522 lung,3.65 µM
same,GI50,NCI/ADR-RES ovarian,1.99 µM
same,TGI,NCI/ADR-RES ovarian,4.69 µM
same,GI50,OVCAR-3 ovarian,1.48 µM
same,TGI,OVCAR-3 ovarian,2.96 µM
same,GI50,OVCAR-4 ovarian,2.74 µM
same,TGI,OVCAR-4 ovarian,14.6 µM
same,GI50,OVCAR-5 ovarian,1.51 µM
same,TGI,OVCAR-5 ovarian,3.32 µM
same,GI50,OVCAR-8 ovarian,1.55 µM
same,TGI,OVCAR-8 ovarian,3.71 µM
same,GI50,PC-3 prostate,1.47 µM
same,TGI,PC-3 prostate,4.04 µM
same,GI50,RPMI-8226 leukemia,2.03 µM
same,TGI,RPMI-8226 leukemia,5.26 µM
same,GI50,RXF 393 renal,0.866 µM
same,TGI,RXF 393 renal,2.18 µM
same,GI50,SF-268 CNS,1.63 µM
same,TGI,SF-268 CNS,3.53 µM
same,GI50,SF-295 CNS,1.66 µM
same,TGI,SF-295 CNS,3.14 µM
same,GI50,SF-539 CNS,1.59 µM
same,TGI,SF-539 CNS,3.02 µM
same,GI50,SK-MEL-2 melanoma,2.07 µM
same,TGI,SK-MEL-2 melanoma,5.51 µM
same,GI50,SK-MEL-28 melanoma,1.6 µM
same,TGI,SK-MEL-28 melanoma,3.28 µM
same,GI50,SK-MEL-5 melanoma,1.84 µM
same,TGI,SK-MEL-5 melanoma,3.47 µM
same,GI50,SK-OV-3 ovarian,1.65 µM
same,TGI,SK-OV-3 ovarian,3.13 µM
same,GI50,SN12C renal,1.65 µM
same,TGI,SN12C renal,3.92 µM
same,GI50,SNB-19 CNS,1.63 µM
same,TGI,SNB-19 CNS,3.97 µM
same,GI50,SNB-75 CNS,1.73 µM
same,TGI,SNB-75 CNS,7.27 µM
same,GI50,SW-620 colon,1.74 µM
same,TGI,SW-620 colon,4.47 µM
same,GI50,T-47D breast,1.86 µM
same,TGI,T-47D breast,7.06 µM
same,GI50,TK-10 renal,2.43 µM
same,TGI,TK-10 renal,7.86 µM
same,GI50,U251 CNS,1.48 µM
same,TGI,U251 CNS,2.97 µM
same,GI50,UACC-257 melanoma,1.83 µM
same,TGI,UACC-257 melanoma,4.16 µM
same,GI50,UACC-62 melanoma,1.55 µM
same,TGI,UACC-62 melanoma,3.17 µM
same,GI50,UO-31 renal,1.21 µM
same,TGI,UO-31 renal,2.47 µM
COc1ccc(C2C3=C(COC3=O)Oc3cc4c(cc32)OCO4)c(OC)c1 (centres undefined),TGI,786-0 renal,> 100 µM
same,TGI,A498 renal,> 100 µM
same,TGI,A549 NSCLC,> 100 µM
same,TGI,ACHN renal,> 100 µM
same,TGI,BT-549 breast,> 100 µM
same,TGI,CAKI-1 renal,> 100 µM
same,TGI,CCRF-CEM leukemia,> 100 µM
same,TGI,COLO 205 colon,> 100 µM
same,TGI,DU-145 prostate,> 100 µM
same,TGI,EKVX NSCLC,> 100 µM
same,TGI,HCC-2998 colon,> 100 µM
same,TGI,HCT-116 colon,> 100 µM
same,TGI,HCT-15 colon,> 100 µM
same,TGI,HL-60(TB) leukemia,39.9 µM
same,TGI,HOP-62 NSCLC,> 100 µM
same,TGI,HS 578T breast,98.3 µM
same,TGI,HT29 colon,> 100 µM
same,TGI,IGROV1 ovarian,> 100 µM
same,TGI,K-562 leukemia,87.3 µM
same,TGI,KM12 colon,> 100 µM
same,TGI,LOX IMVI melanoma,> 100 µM
same,TGI,M14 melanoma,> 100 µM
same,TGI,MALME-3M melanoma,> 100 µM
same,TGI,MCF7 breast,> 100 µM
same,TGI,MDA-MB-231 breast,> 100 µM
same,TGI,MDA-MB-435,5.49 µM
same,TGI,MOLT-4 leukemia,> 100 µM
same,TGI,NCI-H226 lung,> 100 µM
same,TGI,NCI-H23 lung,> 100 µM
same,TGI,NCI-H460 lung,> 100 µM
same,TGI,NCI/ADR-RES ovarian,> 100 µM
same,TGI,OVCAR-3 ovarian,58.7 µM
same,TGI,OVCAR-4 ovarian,> 100 µM
same,TGI,OVCAR-5 ovarian,> 100 µM
same,TGI,OVCAR-8 ovarian,> 100 µM
same,TGI,PC-3 prostate,> 100 µM
same,TGI,RPMI-8226 leukemia,> 100 µM
same,TGI,RXF 393 renal,51 µM
same,TGI,SF-268 CNS,> 100 µM
same,TGI,SF-295 CNS,29.8 µM
same,TGI,SF-539 CNS,43.6 µM
same,TGI,SK-MEL-28 melanoma,> 100 µM
same,TGI,SK-MEL-5 melanoma,> 100 µM
same,TGI,SK-OV-3 ovarian,93.1 µM
same,TGI,SN12C renal,> 100 µM
same,TGI,SNB-19 CNS,> 100 µM
same,TGI,SNB-75 CNS,46.8 µM
same,TGI,SR leukemia,> 100 µM
same,TGI,SW-620 colon,> 100 µM
same,TGI,TK-10 renal,> 100 µM
same,TGI,U251 CNS,> 100 µM
same,TGI,UACC-257 melanoma,> 100 µM
same,TGI,UO-31 renal,> 100 µM
